“And” between values parts separate entries of the source, which are not always exact repeats. Equal values may be shown once.
Key:
[1] = test system: GD3 antibody 4F6; assay: ELISA of immobilized phage clones with GD3 antibody 4F6 (Example 2); type: binding, mouse; details: for absorbance OD450-OD620, binding to GD3 antibody 4F6: phage clone immobilized, duplicate lines
Procedure: A 0.1M NaHCO3 solution containing each of the phage clones obtained in Example 1 (10^11, 10^10, or 10^9 titer/100 μL) was added to the wells of a 96-well microtiter plate (product of Nunc), for immobilization of the phage clones at room temperature for one hour. The supernatant was removed, then the wells were subjected to blocking by use of a blocking solution ([…]; TBS containing 1% BSA, 0.1% skim milk, and 0.02% Tween 20; pH 7.5) at 37° C. for four hours.
The supernatant was removed, then GD3 antibody 4F6 (100 μL), serving as a primary antibody, was added to each well for reaction under shaking at room temperature for two hours. After completion of reaction, the supernatant was removed, then the wells were washed six times with a washing solution (400 μL for each well, TBS containing 0.05% Tween 20). Subsequently, a secondary antibody (anti-mouse IgG-HRP, product of Santa Cruz Biotechnology, catalogue No. SC-2031, Lot. No. C089) which was diluted 5,000-fold by use of a blocking solution prepared in advance was added to the wells (100 μL to each well) for reaction under shaking at room temperature for one hour. After completion of reaction, the wells were washed four times with a washing solution (400 μL for each well), then a detection reagent (TMB Microwell; product of KPL, Catalogue No. 50-76-04, Lot. No. WF075) was added to the wells (100 μL to each well), and the mixture was allowed to stand for five minutes at room temperature.
1N-Hydrochloric acid (100 μL) was added to each well for stopping the reaction. Absorbance of each well was measured at 450 nm and 620 nm, and “OD450-OD620” was calculated. A Multiscan (product of Labosystems) was used in measurement of absorbance. A well in which phages had not been immobilized served as a blank, and the absorbance of each well was determined by subtracting the blank value from the “as-measured” value.

[2] = Titer against GD3 (ELISA) of antiserum from mice immunized with MAP peptides (Example 4); type: in vivo, mice (C57BL/6); details: for reactivity of antiserum with GD3 (ELISA absorbance): individual mice
Procedure: Four species of GD3-mimetic peptide (MAP) obtained in Example 3 (2) was dissolved in PBS so as to attain a concentration of 200 μg/mL. The solution was added to Freund's complete (or incomplete) adjuvant (1:1, by volume), to thereby prepare an emulsion.
Eight mice (C57BL/6) were immunized by subcutaneous administration of the above emulsion (0.2 mL/mouse, in one administration, […]). Administration was performed every two weeks (for the second and subsequent administrations, Freund's incomplete adjuvant was used). After one week following respective administrations, blood was collected from the tail of each mouse, to thereby yield antiserum.
The antiserum obtained directly after the first administration will be referred to “1-st,” that obtained after the second administration will be referred to “2-nd,” and that obtained after the third administration will be referred to “3-rd.”
The titer, against GD3, of each of the antiserum samples (3×8 mice=24 samples) obtained in the (1) above was measured through ELISA as described below.
The thus-obtained purified GD3 was dissolved in methanol, whereby a GD3 solution having a concentration of 10 μg/mL was prepared. The GD3 solution was added to the wells of a 96-well micro-titer plate in amounts of 10 μL per well (which corresponds to 100 ng GD3 per well), and methanol was evaporated. Subsequently, a blocking solution (TBS supplemented with 1% BSA) was added to the wells in amounts of 50 μL per well, for blocking at 37° C. for 4 hours.
The supernatant was discarded. Each of the antiserum samples obtained in (1) above was diluted 100-fold, 400-fold, or 1,600 fold with the above-mentioned blocking solution. The diluted antiserum (50 μL) was added to each well for reaction at 4° C. overnight. The well was washed six times with TBS, and thereafter, HRP-labeled […] diluted 5,000-fold with the blocking solution was added (50 μL per well) for reaction for 2 hours at room temperature. The well was washed four times with TBS, and thereafter, enzymatic activity (peroxidase) of the well was detected with TMB solution (50 μL). The reaction was stopped with 1N HCl (50 μL), and the value corresponding to “420 nm-620 nm” was calculated.
A control sample was prepared as follows. […] The synthesized peptide was administered to a mouse for immunization, and the obtained antiserum served as a control sample. The titer of the control sample was obtained in a manner similar to that described above. (However, the number of provided mice was five, and only a 100-fold diluted solution was used.) This control peptide sample was also used in the form of MAP as described above.

[3] = test system: T-cell-rich lymphocytes / IL-2-dependent CTLL2 cells; assay: Cell response test: IL-2 activity (3H thymidine up-take of CTLL2 cells) in supernatant of spleen cells of mice immunized with GD3; type: cell-based, mouse; details: for 3H Thymidine up-take into CTLL2 cells, mean ± SE (4 wells): mice immunized with GD3
Procedure: Similar to the case of immunization with R4-KLH, antiserum samples were also prepared through immunization with GD3 (30 μg).
The spleen aseptically removed from each of the above-immunized mice was minced in a 10% FCS-supplemented RPMI 1640 medium. By use of a nylon wool column, T-cell-rich lymphocytes were prepared and the cells were counted. The above medium containing the cells in an amount of 10^5 cells per 150 μL was added to each of the wells of a culture plate. PHA was added so as to attain a final concentration of 1 μg/mL. A peptide of the present invention or any of different gangliosides in PBS was added, and the mixture was incubated for 96 hours. A supernatant (100 μL) was obtained from each well. The IL-2 activity of the supernatant was determined through use of IL-2-dependent mouse cells, CTLL2. Briefly, the supernatant (100 μL) diluted 2 to 50-fold with a medium was added to the wells in an amount of 10^4 CTLL2 cells/well, followed by incubation at 37° C. for 48 hours. Subsequently, 3H-thymidine (0.5 μCi) was added to each well, followed by incubation for 6 hours. CTLL2 cells were recovered on a paper filter and counted for 3H.

[4] = antiserum 1st (after first administration), dilution factor 1/100, MAP 5 μg/mouse s.c.
[5] = antiserum 1st, dilution factor 1/400
[6] = antiserum 1st, dilution factor 1/1600
[7] = antiserum 2nd (after second administration), dilution factor 1/100
[8] = antiserum 2nd, dilution factor 1/400
[9] = antiserum 2nd, dilution factor 1/1600
[10] = antiserum 3rd (after third administration), dilution factor 1/100
[11] = antiserum 3rd, dilution factor 1/400
[12] = antiserum 3rd, dilution factor 1/1600
[13] = stimulant 1 μg/ml, supernatant dilution 1/20
[14] = stimulant 1 μg/ml, supernatant dilution 1/50
[15] = stimulant 1 μg/ml, supernatant dilution ½
[16] = stimulant 1 μg/ml, supernatant dilution ⅕
[17] = stimulant 2 μg/ml, supernatant dilution 1/20
[18] = stimulant 2 μg/ml, supernatant dilution 1/50
[19] = stimulant 2 μg/ml, supernatant dilution ½
[20] = stimulant 2 μg/ml, supernatant dilution ⅕
[21] = stimulant 5 μg/ml, supernatant dilution 1/20
[22] = stimulant 5 μg/ml, supernatant dilution 1/50
[23] = stimulant 5 μg/ml, supernatant dilution ½
[24] = stimulant 5 μg/ml, supernatant dilution ⅕

Row | Sequence | absorbance OD450-OD620, binding to GD3 antibody 4F6 ([1]; 10^9 titer/well) | absorbance OD450-OD620, binding to GD3 antibody 4F6 ([1]; 10^10 titer/well) | absorbance OD450-OD620, binding to GD3 antibody 4F6 ([1]; 10^11 titer/well) | reactivity of antiserum with GD3 (ELISA absorbance) [2, 4] | reactivity of antiserum with GD3 (ELISA absorbance) [2, 5] | reactivity of antiserum with GD3 (ELISA absorbance) [2, 6] | reactivity of antiserum with GD3 (ELISA absorbance) [2, 7] | reactivity of antiserum with GD3 (ELISA absorbance) [2, 8] | reactivity of antiserum with GD3 (ELISA absorbance) [2, 9] | reactivity of antiserum with GD3 (ELISA absorbance) [2, 10] | reactivity of antiserum with GD3 (ELISA absorbance) [2, 11] | reactivity of antiserum with GD3 (ELISA absorbance) [2, 12] | 3H Thymidine up-take into CTLL2 cells, mean ± SE (4 wells) [3, 13] | 3H Thymidine up-take into CTLL2 cells, mean ± SE (4 wells) [3, 14] | 3H Thymidine up-take into CTLL2 cells, mean ± SE (4 wells) [3, 15] | 3H Thymidine up-take into CTLL2 cells, mean ± SE (4 wells) [3, 16] | 3H Thymidine up-take into CTLL2 cells, mean ± SE (4 wells) [3, 17] | 3H Thymidine up-take into CTLL2 cells, mean ± SE (4 wells) [3, 18] | 3H Thymidine up-take into CTLL2 cells, mean ± SE (4 wells) [3, 19] | 3H Thymidine up-take into CTLL2 cells, mean ± SE (4 wells) [3, 20] | further results
1 | RHAYRSMAEWGFLYS (RHAYRSMAQWGFLYS) [GD3R4, tested as phage clone, MAP form or peptide] | 0.109 and 0.116 | 0.14 and 0.102 | 0.386 and 0.315 | 0.071 and 0.247 and 0.086 (2×) and 0.08 and 0.063 and 0.082 and 0.042 | 0.047 and 0.108 and 0.033 and 0.041 and 0.034 and 0.037 and 0.032 and 0.021 | 0.014 (2×) and 0.052 and 0.009 and 0.008 and 0.006 and 0.012 and 0.007 | 0.08 and 0.164 and 0.195 and 0.153 and 0.124 and 0.147 and 0.05 and 0.122 | 0.07 and 0.114 and 0.128 and 0.093 and 0.106 and 0.079 and 0.057 and 0.058 | 0.022 and 0.026 and 0.062 and 0.033 and 0.031 and 0.041 and 0.013 and 0.019 | 0.088 and 0.176 and 0.253 and 0.19 and 0.168 and 0.113 and 0.147 and 0.116 | 0.042 and 0.093 and 0.111 and 0.104 and 0.098 and 0.045 and 0.061 and 0.053 | 0.008 and 0.029 and 0.026 and 0.022 and 0.039 and 0.013 (2×) and 0.024 | 1994 ± 348 | 881 ± 127 | 5867 ± 1213 | 3418 ± 749 | 3248 ± 613 | 1274 ± 156 | 12671 ± 1643 | 8349 ± 1014 | binding affinity to GD3 antibody 4F6 (words, FIG. 1) ([1]; phage clones): strongest binding affinity; reactivity of antiserum with GD3 ([2]; peptide used as immunogen (MAP)): high reactivity with GD3; IL-2 production by T-cell-rich lymphocytes ([3]; lymphocytes from GD3-immunized mouse): production of IL-2 has been confirmed; 3H Thymidine up-take into CTLL2 cells, mean ± SE (4 wells) [3, 21]: 7526 ± 839; 3H Thymidine up-take into CTLL2 cells, mean ± SE (4 wells) [3, 22]: 2684 ± 387; 3H Thymidine up-take into CTLL2 cells, mean ± SE (4 wells) [3, 23]: 14237 ± 1884; 3H Thymidine up-take into CTLL2 cells, mean ± SE (4 wells) [3, 24]: 11358 ± 1563
2 | LAPPRPRSELVFLSV (LAPPRPRSQLVFLSV) [GD3R1, tested as phage clone, MAP form or peptide] | 0.017 and 0.026 | 0.067 and 0.055 | 0.094 and 0.086 | 0.047 and 0.106 and 0.03 and 0.055 and 0.059 and 0.061 and 0.034 and 0.052 | 0.026 and 0.057 and 0.024 and 0.052 and 0.034 and 0.027 and 0.017 and 0.039 | 0 (3×) and 0.005 and 0.008 and 0.016 and 0.004 and 0.007 | 0.087 and 0.14 and 0.188 and 0.102 and 0.117 and 0.168 and 0.054 and 0.082 | 0.027 and 0.063 and 0.088 and 0.074 and 0.047 and 0.06 and 0.039 and 0.026 | 0.016 and 0.022 and 0.034 and 0.019 (2×) and 0.014 and 0.024 and 0.01 | 0.068 and 0.066 and 0.084 (2×) and 0.139 and 0.121 and 0.08 and 0.023 | 0.019 and 0.017 and 0.03 (2×) and 0.054 and 0.021 and 0.051 and 0.01 | 0 (2×) and 0.002 and 0.008 and 0.003 (2×) and 0.001 and 0.004 | 888 ± 107 | 234 ± 43 | 3014 ± 671 | 1967 ± 276 | 906 ± 121 | 246 ± 38 | 3219 ± 546 | 1831 ± 259 | 3H Thymidine up-take into CTLL2 cells, mean ± SE (4 wells) [3, 21]: 942 ± 116; 3H Thymidine up-take into CTLL2 cells, mean ± SE (4 wells) [3, 22]: 251 ± 44; 3H Thymidine up-take into CTLL2 cells, mean ± SE (4 wells) [3, 23]: 3344 ± 497; 3H Thymidine up-take into CTLL2 cells, mean ± SE (4 wells) [3, 24]: 1956 ± 285
